Measurements: US6737424B2 (Zeneca Ltd., priority 1995, dated 2004)
pIC50: −log10 of the molar value. Where two headings read alike, the source gives them in different places.

Key:
[1] = target: T1, glycine receptor of the NMDA receptor complex (Rattus norvegicus, UniProt P35439); experiment: [3H]-glycine binding assay (Test A)
T1 construct: Freshly dissected cortices and hippocampi are homogenized in 0.32 M sucrose; from tissue; host or cells: rat cortex and hippocampus synaptic membranes
From the text: The actions of compounds according to the invention as antagonists at the glycine receptor of the NMDA receptor complex can be shown by one or more standard tests such as the [^3H]-glycine binding assay (Test A) and by in vivo tests such as the red nucleus test (Test B) and the Rat Middle Cerebral Artery test (Test C). These tests confirm that compounds of the invention function as NMDA receptor antagonists in vitro and in vivo. Certain compounds of the invention are potent NMDA receptor antagonists.
In the [^3H]-glycine binding assay, neuronal synaptic membranes are prepared from adult (about 250 g) male Sprague-Dawley rats. Freshly dissected cortices and hippocampi are homogenized in 0.32 M sucrose (110 mg/mL). Synaptosomes are isolated by centrifugation (1000×g, 10 min), the supernatant is pelleted (20,000×g, 20 min) and resuspended in double-distilled water. The suspension was centrifuged for 20 minutes at 8,000×g. The resulting supernatant and buffy coat are washed twice (48,000×g, 10 min) and resuspended in double-deionized water. The final pellet is quickly frozen (dry ice/ethanol bath) under double-deionized water and stored at −70° C.
On the day of the experiment, thawed synaptic membranes are homogenized with a Brinkmann Polytron (Brinkmann Instruments, Westbury, N.Y.) tissue homogenizer in 50 millimolar tris(hydroxymethyl)aminomethane citrate, pH 7.1. The membranes are incubated with 0.04% Sufact-AMPS X100 (Pierce, Rockford, Ill.) in buffer for 20 minutes at 37° C. and washed six times by centrifugation (48,000×g, 10 min) and resuspended in buffer. The final pellet is homogenized at 200 mg wet weight/mL of the buffer for the binding assay.
For [^3H]-glycine binding at the N-methyl-D-aspartate receptor, 20 nanomolar [^3H]-glycine (40-60 Ci/mmol, New England Nuclear, Boston, Mass.) is incubated with the membranes suspended in 50 millimolar tris(hydroxymethyl)aminomethane citrate, pH 7.1 for 30 minutes at 4° C. Glycine, 1 millimolar, is used to define the nonspecific binding. Bound [^3H]-glycine is isolated from free using a Brandel (Biomedical Research and Development Laboratories, Gaithersburg, Md.) cell harvester for vacuum filtration over glass fiber filters (Whatman GF/B from Brandel, Gaithersburg, Md.) presoaked in 0.025% polyethylenimine. The samples retained on the glass fiber filters are rinsed 3 times with a total of 2.5 mL ice cold buffer. Radioactivity is estimated by liquid scintillation counting. IC50 values are obtained from a least-squares regression of a logit-log transformation of the data.

[2] = system: NMDA-induced excitatory response of red nucleus cells; experiment: Red nucleus test (Test B); type: in vivo, rat; conditions: anesthetized rats
Protocol: The purpose of this test is to determine the effects of intravenously administered glycine antagonists on the NMDA-induced excitatory response of red nucleus cells.
The procedure for the red nucleus test is as follows. Rats are anesthetized with chloral hydrate (400 mg/kg ip) and the femoral vein is catheterized for iv drug administration. Five-barrel micropipettes are stereotaxically positioned in the red nucleus. Typically, three to four of the five barrels are filled as follows: the recording barrel with 2M potassium citrate, the current balancing barrel with 4M NaCl, the drug barrel with 25 mM NMDA, and another drug barrel with 2.5 mM quisqualic acid (QA is only used in selectivity studies). NMDA is iontophoretically applied with an ejection current that is adjusted depending on the sensitivity of each individual red nucleus cell. The NMDA is cycled on and off (usually 30-60 sec. on and 60-120 sec. off) and the firing rate of the cell during each period is recorded. Once the baseline firing rate of the cell has been established, the test drug is administered iv. The effect of the drug on the NMDA-induced excitatory response of the red nucleus cell can be both qualitatively and quantitatively evaluated from the recordings and the raw data accumulated.

[3] = system: permanent middle cerebral artery (MCA) occlusion, focal ischemia; experiment: Rat Middle Cerebral Artery test (Test C); type: in vivo; conditions: I.V. dose of 20 mgs/kg/hr, SHR rats, 24 hours after MCA/common carotid artery occlusion
Protocol: Male SHR rats weighing 280-320 g are used for these studies. The method used for permanent middle cerebral artery (MCA) occlusion is as described by Brint et al (1988). […] Following occlusions, drugs are administered intravenously via jugular catheter. Twenty-four hours after MCA/common carotid artery occlusion, the animals are sacrificed and their brains quickly removed. Coronal sections of 1 mm thickness are cut using a vibratome and stained with 2,3,5-triphenyl-2H-tetrazolium chloride (TTC) dye. Following staining, necrotic tissue is readily distinguished from the intact brain and the area of infarcted cortex can be traced on an image analyzer. The infarct volume for each section is quantified with an image analyzer, and the total infarct volume is calculated with a program that summed all interval volume. See S. Brint et al. J. Cerebral Blood Flow 8:474-485 (1988). The statistical analysis of the difference between the volume of ischemic damage in the vehicle control and drug-treated animals is analyzed by Student's t-test. […] For example, the compound of example 4 at an I.V. dose of 20 mgs/kg/hr caused an infarct % volume change of −22%.

melting point [°C] | pIC50 [1] | SMILES | other results
 | 6.52 | CC(Cc1ccccc1)n1nc(O)c2[nH]c3cc(Cl)ccc3c(=O)c2c1=O (stereo not drawn) [Example 5, 7-chloro-4-hydroxy-2-(1-methyl-2-phenylethyl)-1,2,5,10-tetrahydropyridazino[4,5-b]quinoline-1,10-dione] | 
237 to 239 | 6.62 | CCCC(C)n1nc(O)c2[nH]c3cc(Cl)ccc3c(=O)c2c1=O (stereo not drawn) [Example 4, 7-chloro-4-hydroxy-2-(1-methylbutyl)-1,2,5,10-tetrahydropyridazino[4,5-b]quinoline-1,10-dione] | infarct % volume change [3]: −22%; ID50, red nucleus test ([2]; as the meglumine salt (N=3), iv): 3.77 mg/kg
> 275 |  | C[C@H](C(=O)O)n1nc(O)c2[nH]c3cc(Cl)ccc3c(=O)c2c1=O [Example 13, 7-chloro-4-hydroxy-2-[(R)-1-carboxyethyl]-1,2,5,10-tetrahydropyridazino[4,5-b]quinoline-1,10-dione] | 
> 250 |  | CC(CC(=O)Nc1ccccc1)n1nc(O)c2[nH]c3cc(Cl)ccc3c(=O)c2c1=O (stereo not drawn) [Example 10, 7-chloro-4-hydroxy-2-[1-methyl-2-(N-phenylcarbamoyl)ethyl]-1,2,5,10-tetrahydropyridazino[4,5-b]quinoline-1,10-dione] | 
 | 6.43 | CC(c1ccccc1)n1nc(O)c2[nH]c3cc(Cl)ccc3c(=O)c2c1=O (stereo not drawn) [Example 3] | 
> 250 | 6.62 | CC(C(=O)Nc1ccccc1)n1nc(O)c2[nH]c3cc(Cl)ccc3c(=O)c2c1=O (stereo not drawn) [Example 1, 7-chloro-4-hydroxy-2-[1-(phenylcarbamoyl)ethyl]-1,2,5,10-tetrahydropyridazino[4,5-b]quinoline-1,10-dione] | 
218 to 219 |  | CC(CC(=O)N(C)c1ccccc1)n1nc(O)c2[nH]c3cc(Cl)ccc3c(=O)c2c1=O (stereo not drawn) [Example 11, 7-chloro-4-hydroxy-2-[1-methyl-2-(N-phenyl-N-methylcarbamoyl)ethyl]-1,2,5,10-tetrahydropyridazino[4,5-b]quinoline-1,10-dione] | 
241 to 244 |  | CC(Cc1ccccc1)n1nc(O)c2[nH]c3cc(Cl)ccc3c(=O)c2c1=O (stereo not drawn) (hydrate or solvate) [Example 5, 7-chloro-4-hydroxy-2-(1-methyl-2-phenylethyl)-1,2,5,10-tetrahydropyridazino[4,5-b]quinoline-1,10-dione] | 

Further lines, the compound ahead of its results:

SMILES | melting point [°C] | pIC50 [1] | other results
O=c1c2ccc(Cl)cc2[nH]c2c(O)nn(C3CCCCC3)c(=O)c12 [Example 2, 7-chloro-4-hydroxy-2-cyclohexyl-1,2,5,10-tetrahydropyridazino[4,5-b]quinoline-1,10-dione] | > 100 |  | pIC50 ([1]; rat cortex/hippocampus synaptic membranes, 20 nanomolar [3H]-glycine, 30 minutes at 4° C., pH 7.1, read-out: IC50, [3H]-glycine binding): 6.92
NC1CCN(O)C1=O (stereo not drawn) [HA-966] |  |  | ID50, red nucleus test ([2]; reference agents, intravenous): 7.9 mg/kg iv
CC(C)CC(C)n1nc(O)c2[nH]c3cc(Cl)ccc3c(=O)c2c1=O (stereo not drawn) [Example 6, 7-chloro-4-hydroxy-2-(1,3-dimethylbutyl)-1,2,5,10-tetrahydropyridazino[4,5-b]quinoline-1,10-dione] | 238 to 240 | 6.54 | 
O=c1c2ccc(Cl)cc2[nH]c2c(O)nn(CC3(C(F)(F)F)C=CC=CC3)c(=O)c12 (stereo not drawn) (hydrate or solvate) [Example 12, 7-chloro-4-hydroxy-2-(1-trifluoromethylbenzyl)-1,2,5,10-tetrahydropyridazino[4,5-b]quinoline-1,10-dione] | 237 to 238 |  | 
COC(=O)[C@@H](C)n1nc(O)c2[nH]c3cc(Cl)ccc3c(=O)c2c1=O (hydrate or solvate) [Example 7, 7-chloro-4-hydroxy-2-[(R)-1-(methyloxycarbonyl)-ethyl]-1,2,5,10-tetrahydropyridazino[4,5-b]quinoline-1,10-dione] | 262 to 264 |  | 
C/C(=C\C(N)C(=O)O)CP(=O)(O)O (stereo not drawn) [CGP 37849] |  |  | ID50, red nucleus test ([2]; reference agents, intravenous): 1.7 mg/kg iv
COC(=O)C1(Cn2nc(O)c3[nH]c4cc(Cl)ccc4c(=O)c3c2=O)C=CC=CC1 (stereo not drawn) (hydrate or solvate) [Example 8, 7-chloro-4-hydroxy-2-[1-(methyloxycarbonyl)-benzyl]-1,2,5,10-tetrahydropyridazino[4,5-b]quinoline-1,10-dione] | 242 to 244 |  | 
